Test results from patent US20100234377A1 (priority 2007, published 2010).

target: T1, human Prostaglandin D Synthase (GST2) (Homo sapiens, UniProt O60760); assay: Homogeneous biochemical assay of human Prostaglandin D Synthase (GST2) based on its glutathion-S-transferase activity (GSH conjugation to monochlorobimane, fluorescence); conditions: given beside the compound name in Examples 1 to 167; read-out: Potency Range (GST2 IC50)
T1 construct: the open reading frame of human Prostaglandin D Synthase was amplified from cDNA; made in house; host or cells: E. coli TOP10F'
T1 sequence (O60760 whole entry): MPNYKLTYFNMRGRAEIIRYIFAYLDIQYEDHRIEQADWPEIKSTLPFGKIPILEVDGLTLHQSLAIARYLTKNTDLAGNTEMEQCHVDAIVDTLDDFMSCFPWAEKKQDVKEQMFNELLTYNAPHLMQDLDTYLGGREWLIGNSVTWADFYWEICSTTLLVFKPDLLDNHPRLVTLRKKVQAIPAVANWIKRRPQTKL
Description: Homogeneous, Biochemical Assay Monitoring the Activity of Human Prostaglandin D Synthase Based on the Glutathion-S-Transferase Activity of the Enzyme
Prostaglandin D2 synthesis by Prostaglandin D synthase (GST2) requires transfer of Glutathion (GSH) to the substrate, Prostaglandin H2. […] Since the Prostaglandin D2 synthesis is absolutely dependent on the GST activity of the enzyme, assays monitoring the GST activity should allow to identify specific inhibitors of Prostaglandin D2 synthetic activity. The assay principle used is based on enzymatic conjugation of GSH to Monochlorobimane (MCB), that becomes fluorescent upon this chemical modification. Therefore, the enzymatic reaction can be monitored by total fluorescence measurement.
In brief, the open reading frame of human Prostaglandin D Synthase was amplified from cDNA using the primer pair:
This construct allows prokaryotic expression of Prostaglandin D Synthase as fusion protein with a N-terminal hexa-histidine tag, referred to as NHis-Prostaglandin D Synthase.
Expression of NHis-Prostaglandin D Synthase was in E. coli TOP10F′ (Invitrogen, Germany, cat. no. C3030-03). […] When the culture had reached a density corresponding to an A600 of 0.6, an equal volume of room temperature LB/ampicillin was added. […] Cells harvested by centrifugation were resuspended in 50 mM tris(hydroxymethyl)aminomethane hydrochloride pH 7.5 (Tris/HCl, Sigma, cat. no. T5941).
Removal of unbound material was with 100 ml lysis buffer. Elution was with 50 ml of 50 mM Tris/HCl pH 7.5, 300 mM imidazol (Sigma, Germany, cat. no. I2399)/HCl pH 7.5). […] Aliquots were shock frozen in liquid nitrogen and stored at −80° C.
All assay components were diluted in reaction buffer, 50 mM MES/KOH (pH 6.1), 0.7 mM GSH (Sigma, G4251), 2 mM MgCl2 (Sigma, M2670), 0.05% Pluronic F127 (Sigma, P2443), and stored on ice prior to use. Compounds were diluted in 90% DMSO yielding final assay concentrations from the picomolar to three digit micromolar range.
Total fluorescent measurement was carried out with excitation and emission wavelength of 390 and 460 nm, respectively (BMG Fluostar Optima).

`CC(C)(C)OC(=O)N1CCN(c2ccc(NC(=O)N3CCN(C(=O)c4cc(F)ccc4F)CC3)cc2F)CC1` [Compound 48, 4-(4-{[4-(2,5-Difluoro-benzoyl)-piperazine-1-carbonyl]-amino}-2-fluoro-phenyl)-piperazine-1-carboxylic acid tert-butyl ester] and `CC(C)C(=O)N1CCN(c2ccc(NC(=O)N3CCN(C(=O)c4cc(F)ccc4F)CC3)cc2F)CC1` [Compound 58, 4-(2,5-Difluoro-benzoyl)-piperazine-1-carboxylic acid [3-fluoro-4-(4-isobutyryl-piperazin-1-yl)-phenyl]-amide] fall in the same range of IC50: 101 to 1000 nM for the first, 101 to 1000 nM for the second.

`O=C(Nc1ccc2nc(NC(=O)N3CCN(C(=O)c4cccc(F)c4)CC3)sc2c1)c1ccccn1` [Compound 140, 4-(3-Fluoro-benzoyl)-piperazine-1-carboxylic acid {6-[(pyridine-2-carbonyl)-amino]-benzothiazol-2-yl}-amide] and `O=C(Nc1ccc(NC(=O)N2CCN(C(=O)c3cccc(F)c3)CC2)cc1)c1ccccn1` [Compound 114, 4-(3-Fluoro-benzoyl)-piperazine-1-carboxylic acid {4-[(pyridine-2-carbonyl)-amino]-phenyl}-amide] fall in the same range of IC50: 11 to 100 nM for the first, 11 to 100 nM for the second.

First: O=C(Nc1ccc(-c2cccs2)cc1)N1CCN(C(=O)c2cccc(F)c2)CC1 [Compound 28, 4-(3-Fluoro-benzoyl)-piperazine-1-carboxylic acid (4-thiophen-2-yl-phenyl)-amide]
Second: O=C(Nc1ccc(C(F)(F)F)cc1)N1CCN(C(=O)c2cccc(F)c2)CC1 [Compound 149, 4-(3-Fluoro-benzoyl)-piperazine-1-carboxylic acid (4-trifluoromethyl-phenyl)-amide]
The IC50 of the first is lower: 11 to 100 nM for the first, 101 to 1000 nM for the second. The first is the more potent here.

First: O=C(Nc1cccc(-c2ncn[nH]2)c1)N1CCN(C(=O)c2cccc(F)c2)CC1 [Compound 159, 4-(3-Fluoro-benzoyl)-piperazine-1-carboxylic acid [3-(2H-[1,2,4]triazol-3-yl)-phenyl]-amide]
Second: Cc1nccc(-c2cccc(NC(=O)N3CCN(C(=O)c4cccc(F)c4)CC3)c2)n1 [Compound 78, 4-(3-Fluoro-benzoyl)-piperazine-1-carboxylic acid [3-(2-methyl-pyrimidin-4-yl)-phenyl]-amide]
The IC50 of the first is higher: 101 to 1000 nM for the first, 11 to 100 nM for the second. The second is the more potent here.

`CC(C)C(=O)N1CCN(c2ccc(NC(=O)N3CCN(C(=O)c4cccc(F)c4)CC3)cc2F)CC1` [Compound 57, 4-(3-Fluoro-benzoyl)-piperazine-1-carboxylic acid [3-fluoro-4-(4-isobutyryl-piperazin-1-yl)-phenyl]-amide] and `CCCCNC(=O)N1CCN(c2ccc(NC(=O)N3CCN(C(=O)c4cccc(F)c4)CC3)cc2F)CC1` [Compound 53] fall in the same range of IC50: 11 to 100 nM for the first, 11 to 100 nM for the second.

`O=C(Nc1ccc([N+](=O)[O-])cc1)N1CCN(C(=O)c2cccc(F)c2)CC1` [Compound 37, 4-(3-Fluoro-benzoyl)-piperazine-1-carboxylic acid (4-nitro-phenyl)-amide] and `O=C(Nc1ccc([N+](=O)[O-])cc1)N1CCN(C(=O)c2cc(F)ccc2F)CC1` [Compound 49, 4-(2,5-Difluoro-benzoyl)-piperazine-1-carboxylic acid (4-nitro-phenyl)-amide] fall in the same range of IC50: 101 to 1000 nM for the first, 101 to 1000 nM for the second.

`CN(C)c1ccc(NC(=S)N2CCN(C(=O)c3cccnc3)CC2)cc1` [Compound 14, 4-(Pyridine-3-carbonyl)-piperazine-1-carbothioic acid (4-dimethylamino-phenyl)-amide] and `CN(C)c1ccc(NC(=S)N2CCN(C(=O)c3ccc(F)cc3)CC2)cc1` [Compound 10, 4-(4-Fluoro-benzoyl)-piperazine-1-carbothioic acid (4-dimethylamino-phenyl)-amide] fall in the same range of IC50: 101 to 1000 nM for the first, 101 to 1000 nM for the second.

Compared with `CC(C)c1noc(-c2cc(NC(=O)N3CCN(C(=O)c4cccc(F)c4)CC3)ccc2F)n1` [Compound 163, 4-(3-Fluoro-benzoyl)-piperazine-1-carboxylic acid [4-fluoro-3-(3-isopropyl-[1,2,4]oxadiazol-5-yl)-phenyl]-amide], `N#Cc1cc(NC(=O)N2CCN(C(=O)c3cccc(F)c3)CC2)ccc1F` [Compound 85, 4-(3-Fluoro-benzoyl)-piperazine-1-carboxylic acid (3-cyano-4-fluoro-phenyl)-amide] is higher in IC50: 11 to 100 nM for the first, 101 to 1000 nM for the second.

`O=C(Nc1ccc(NC(=O)N2CCN(C(=O)c3cccc(F)c3)CC2)cc1)c1cccc[n+]1[O-]` [Compound 115, 4-(3-Fluoro-benzoyl)-piperazine-1-carboxylic acid {4-[(1-oxy-pyridine-2-carbonyl)-amino]-phenyl}-amide] and `O=C(Nc1ccc(NC(=O)N2CCN(C(=O)c3cccc(F)c3)CC2)cc1)c1ccc[n+]([O-])c1` [Compound 116, 4-(3-Fluoro-benzoyl)-piperazine-1-carboxylic acid {4-[(1-oxy-pyridine-3-carbonyl)-amino]-phenyl}-amide] fall in the same range of IC50: 11 to 100 nM for the first, 11 to 100 nM for the second.

First: O=C(c1cccc(F)c1)N1CCN(C(=S)Nc2ccc(N3CCOCC3)nc2)CC1 [Compound 151, 4-(3-Fluoro-benzoyl)-piperazine-1-carbothioic acid (6-morpholin-4-yl-pyridin-3-yl)-amide]
Second: NC(=O)c1ccc(NC(=O)N2CCN(C(=O)c3cccc(F)c3)CC2)cc1F [Compound 104, 4-(3-Fluoro-benzoyl)-piperazine-1-carboxylic acid (4-carbamoyl-3-fluoro-phenyl)-amide]
The IC50 of the first is lower: 11 to 100 nM for the first, 101 to 1000 nM for the second. The first is the more potent here.

`O=C(c1cccc(F)n1)N1CCN(C(=S)Nc2ccc(OC(F)F)cc2)CC1` [Compound 18, 4-(6-Fluoro-pyridine-2-carbonyl)-piperazine-1-carbothioic acid (4-difluoromethoxy-phenyl)-amide] and `Cc1ccc(NC(=S)N2CCN(C(=O)c3ccccc3)CC2)cc1` [Compound 7, 4-Benzoyl-piperazine-1-carbothioic acid p-tolylamide] fall in the same range of IC50: 101 to 1000 nM for the first, 101 to 1000 nM for the second.

First: O=C(Nc1nnc(-c2ccncc2)s1)N1CCN(C(=O)c2cccc(F)c2)CC1 [Compound 71, 4-(3-Fluoro-benzoyl)-piperazine-1-carboxylic acid (5-pyridin-4-yl[1,3,4]thiadiazol-2-yl)-amide]
Second: Cc1cc2nc(NC(=O)N3CCN(C(=O)c4cccc(F)c4)CC3)sc2cc1C [Compound 79, 4-(3-Fluoro-benzoyl)-piperazine-1-carboxylic acid (5,6-dimethyl-benzothiazol-2-yl)-amide]
The IC50 of the first is higher: 11 to 100 nM for the first, 1 to 10 nM for the second. The second is the more potent here.

`O=C(Nc1cc(Cl)nc(Cl)c1)N1CCN(C(=O)c2cccc(F)c2)CC1` [Compound 24, 4-(3-Fluoro-benzoyl)-piperazine-1-carboxylic acid (2,6-dichloro-pyridin-4-yl)-amide] and `CC(C)C(=O)Nc1ccc(NC(=O)N2CCN(C(=O)c3cccc(F)c3)CC2)cc1` [Compound 121, 4-(3-Fluoro-benzoyl)-piperazine-1-carboxylic acid (4-isobutyrylamino-phenyl)-amide] fall in the same range of IC50: 101 to 1000 nM for the first, 101 to 1000 nM for the second.

`O=C(Nc1ccc(F)nc1)c1ccc(NC(=O)N2CCN(C(=O)c3cccc(F)c3)CC2)cc1` [Compound 103, 4-(3-Fluoro-benzoyl)-piperazine-1-carboxylic acid [4-(6-fluoro-pyridin-3-ylcarbamoyl)-phenyl]-amide] and `O=C(Nc1ccc(NS(=O)(=O)C2CC2)cc1)N1CCN(C(=O)c2cc(F)ccc2F)CC1` [Compound 132, 4-(2,5-Difluoro-benzoyl)-piperazine-1-carboxylic acid (4-cyclopropanesulfonylamino-phenyl)-amide] fall in the same range of IC50: 101 to 1000 nM for the first, 101 to 1000 nM for the second.
